Assay results as given in US8435569B2, “Pharmaceutical composition comprising at least one thrombolytic agent (A) and at least one gas (B) selected from the group consisting of nitrous oxide, argon, xenon, helium, neon” (NNOXE Pharmaceutiques Inc., priority 2007, dated 2013).

Columns and labels:
human recombinant t-PA = human recombinant t-PA (Homo sapiens, UniProt P00750); assay: Catalytic activity of t-PA (initial rate method, spectrophotometer); assay type: biochemical
Description: All experiments were performed as follows: Fifty (50) μL of human recombinant t-PA was incubated with 50 μL of its substrate: methylsulfonyl-D-phenyl-glycil-arginine-7-amino-4-methylcoumarin acetate. For plasmin, twenty five (25) μL of human recombinant plasmin was incubated with 25 μL of its substrate: H-D-norleucyl-hexahydrotyrosol-lysine-para-nitroanilide diacetate. The kinetics of the catalytic activity of t-PA or plasmin was immediately measured using a spectrophotometer, and then estimated using the initial rate method. Solutions of t-PA or plasmin and their substrates were saturated with air (control), or with nitrous oxide, argon, xenon, or helium at concentrations of 15 vol % to 75 vol %, the remainder being oxygen at 25 vol %, completed with nitrogen when necessary.
For all gas mixtures in FIG. 1, the remainder is 25 vol % oxygen completed with nitrogen if necessary.
(§1) The effects of oxygen on the catalytic activity and thrombolytic properties of t-PA were also evaluated in vitro and in vivo according to the methods described above.

[1] = system: middle cerebral artery occlusion using an autologous blood clot; assay: In vivo thrombolysis/reperfusion after embolic middle cerebral artery occlusion using an autologous blood clot; parameters: species or system rat
Description: In vivo experiments (FIG. 3) were performed in Male adult Sprague-Dawley rats (290±40 g). The animals had free access to food and water in an animal room at constant temperature and humidity. Rats monitored for their physiological functions were anesthesized, and subjected to cerebral ischemia by occlusion of the middle cerebral artery using an autologus blood clot obtained from whole blood withdrawn from the rat 24 h prior surgery, allowed to clot at 37° C. for 2 h, and then and stored at 4° C. for 22 h.
Embolic occlusion of the middle cerebral artery was induced using an autologous blood clot. Briefly, a blood clot of 4 cm long was injected with a volume of […] of saline into the middle cerebral artery. Forty-five minutes after occlusion of the middle cerebral artery, the rats were given t-PA intravenously (0.9 mg/kg; 10% bolus, 90% perfusion during 45 minutes) in order to induce thrombolysis. Five minutes before the bolus injection and all along the perfusion period with t-PA, the rats were treated with medical air (controls) or xenon. Then, the catheter was removed, and all the incisions closed. After the experiment, the rats were allowed moving freely in their home cage with free access to food and water.
as §1

t-PA-induced clot lysis = assay: In vitro t-PA-induced clot lysis of rat blood clots; assay type: biochemical; details: for effect on t-PA-induced clot lysis: t-PA 0.008 mg/mL
Description: In vitro experiments (FIG. 2) were performed using Male adult Sprague-Dawley rats (500±50 g). The rats were killed by decapitation. A volume of 500 μL of rat blood was transferred in different pre-weighed sterile Eppenforf™ tubes of 1.5 mL volume and incubated at 37° C. for 15 hours.
After clot formation, serum was completely removed, aspired out without disturbing the clot formed, and each tube was again weighed to determine the clot weight (clot weight=weight of tube containing clot−weight of tube alone). Each tube containing clot was properly labeled and filled with 1 mL of a saline solution containing 0.008 mg/mL of t-PA, saturated beforehand with medical air (control), nitrous oxide, xenon, argon or a mixture of nitrous oxide and argon. Some tubes were filled with saline alone saturated with medical air to serve as a negative control. All tubes were then incubated at 37° C. for 1 h 30 min. After incubation, the fluid obtained was removed and tubes were again weighed to observe the difference in weight after clot disruption. Difference obtained in weight taken before and after clot lysis was expressed as a percentage of clot lysis.
as §1

[2] = system: NMDA-induced neuronal death; assay: NMDA-induced neuronal death after intracerebral injection, with or without t-PA; assay type: in vivo, rat
Description: Experiments were conducted in Male adult Sprague-Dawley rats. The rats were given, under short halothane-oxygen anesthesia of 10 min duration, an intracerebral injection of 50 nmol NMDA, alone or in combination with 3 mg t-PA, in […] saline solution.
One hour later, the rats were treated for a 3 h period in an environmental chamber saturated with nitrous oxide at 50 vol % with the remainder being oxygen at 25 vol % completed with nitrogen.
Forty-eight (48) hours after NMDA injection, rats were killed by decapitation under halothane-oxygen anesthesia. The brain was rapidly removed, frozen in isopentane, placed at −80° C. Coronal brain sections (20 μm) were then cryostat-cut, mounted on gelatinized slides, and stained with thionin. Brain sections colored with thionin were then digitized on a PC computer, and analyzed with an image analyzer (ImageJ® software, Scion corp., USA) by two blinded scientists. Values were averaged; value differences were no more than 10% (mean: 0.5±1%). The lesion areas were delineated by the pallor of histological staining in the necrotic tissue compared with the surrounding healthy tissue. The infarction volume was calculated by integration over the whole brain of the infarcted surfaces, using the sterotaxic atlas for the rat brain of Paxinos and Watson (Academic Press, 1998).

[3] = solutions saturated with gas at 15 vol % to 75 vol %, remainder 25 vol % oxygen completed with nitrogen, vs air control
[4] = gas at 50 vol %, 37° C., 1 h 30 min

Chain of human recombinant t-PA (P00750 36-562): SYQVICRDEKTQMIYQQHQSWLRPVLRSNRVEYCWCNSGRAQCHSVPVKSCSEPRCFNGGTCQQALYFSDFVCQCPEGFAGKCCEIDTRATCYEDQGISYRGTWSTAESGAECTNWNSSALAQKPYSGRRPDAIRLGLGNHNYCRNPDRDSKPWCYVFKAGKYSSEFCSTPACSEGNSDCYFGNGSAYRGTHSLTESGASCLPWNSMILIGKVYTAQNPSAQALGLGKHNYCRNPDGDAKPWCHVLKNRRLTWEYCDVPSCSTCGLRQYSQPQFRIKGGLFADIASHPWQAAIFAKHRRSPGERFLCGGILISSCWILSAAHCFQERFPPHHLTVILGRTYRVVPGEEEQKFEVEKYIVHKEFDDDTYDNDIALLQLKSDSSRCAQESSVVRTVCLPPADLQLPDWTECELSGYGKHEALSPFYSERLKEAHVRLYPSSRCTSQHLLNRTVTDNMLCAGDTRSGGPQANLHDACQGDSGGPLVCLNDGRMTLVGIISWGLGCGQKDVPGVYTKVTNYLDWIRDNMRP

O=O [Oxygen, oxygen]
effect on the catalytic activity of t-PA (human recombinant t-PA; oxygen at 100 vol %): increases | effect on in vivo thrombolytic action of t-PA ([1]; oxygen at 100 vol %): facilitates | effect on in vitro thrombolytic action of t-PA (t-PA-induced clot lysis; oxygen at 100 vol %): facilitates

[Ar] [argon]
effect on the catalytic activity of t-PA (human recombinant t-PA; [3]): reduced | effect on t-PA-induced clot lysis (t-PA-induced clot lysis; gas at 30 vol %, 37° C., 1 h 30 min): reduce

[He] [helium]
effect on the catalytic activity of t-PA (human recombinant t-PA; [3]): reduced | effect on t-PA-induced clot lysis (t-PA-induced clot lysis; gas at 75 vol %, 37° C., 1 h 30 min): reduce

[N-]=[N+]=O [nitrous oxide]
reduction of neuronal death induced by co-administration of t-PA and NMDA ([2]; nitrous oxide 50 vol % for 3 h, 1 h after 50 nmol NMDA + t-PA intracerebral, infarction volume at 48 h): 45% | reduction of neuronal death produced by NMDA ([2]; nitrous oxide 50 vol % for 3 h, 1 h after 50 nmol NMDA intracerebral, infarction volume at 48 h): 22% | reduction of the proteolytic action of t-PA responsible for the enhancement of neuronal death ([2]; nitrous oxide 50 vol %, difference 45%−22%): approximately 23% | effect on the catalytic activity of t-PA (human recombinant t-PA; [3]): reduced | effect on t-PA-induced clot lysis (t-PA-induced clot lysis; [4]): reduce

[Xe] [xenon]
effect on the catalytic activity of t-PA (human recombinant t-PA; [3]): reduced | reperfusion rate versus control rats treated with t-PA and medical air ([1]; xenon at 75 vol % from 5 min before bolus and during t-PA perfusion (0.9 mg/kg i.v.)): lower reperfusion rate | effect on t-PA-induced clot lysis (t-PA-induced clot lysis; [4]): reduce

t-PA: human recombinant tissue-type plasminogen activator, a thrombolytic serine protease
effect on NMDA-induced neuronal death ([2]; t-PA co-administered with 50 nmol NMDA intracerebrally): increases | reperfusion ([1]; t-PA 0.9 mg/kg intravenously 45 min after occlusion, vs rats not treated with t-PA): exhibit reperfusion | percentage of clot lysis (t-PA-induced clot lysis; t-PA 0.008 mg/mL in saline saturated with medical air (control), 37° C., 1 h 30 min): around 23%
